Results as given in US11388902B2, “Pesticidally active cyclopropyl methyl amide derivatives” (SYNGENTA PARTICIPATIONS AG, priority 2017, dated 2022).

Experiments:
Assay type in all cases: in vivo
[1] = test system: Thrips tabaci (Onion Thrips); assay: Thrips tabaci (onion thrips) feeding/contact activity, sunflower leaf discs; details: foliar, 144 h, application rate of 200 ppm, thrips population of mixed ages, 6 days after infestation
Method: Example B6: Thrips tabaci (Onion Thrips) Feeding/Contact Activity
(§1) Sunflower leaf discs were placed on agar in 24-well microtiter plates and sprayed with aqueous test solutions prepared from 10′000 ppm DMSO stock solutions. After drying the leaf discs were infested with a thrips population of mixed ages. The samples were assessed for mortality 6 days after infestation.

[2] = test system: Diabrotica balteata (Corn Root Worm); assay: Diabrotica balteata (corn root worm) on sprayed maize sprouts; details: 96 h, application rate of 200 ppm, L2 larvae, 4 days after infestation, in comparison to untreated samples, read-out: effect in at least one of the two categories (mortality or growth inhibition)
Method: Example B1: Diabrotica balteata (Corn Root Worm)
Maize sprouts placed onto an agar layer in 24-well microtiter plates were treated with aqueous test solutions prepared from 10′000 ppm DMSO stock solutions by spraying. After drying, the plates were infested with L2 larvae (6 to 10 per well). The samples were assessed for mortality and growth inhibition in comparison to untreated samples 4 days after infestation.

[3] = test system: Plutella xylostella (Diamond Back Moth); assay: Plutella xylostella (diamond back moth) artificial diet test; details: 120 h, application rate of 200 ppm, L2 larvae, 5 days after infestation, in comparison to untreated samples, read-out: effect in at least one of the two categories (mortality or growth inhibition)
Method: Example B3: Plutella xylostella (Diamond Back Moth)
24-well microtiter plates with artificial diet were treated with aqueous test solutions prepared from 10′000 ppm DMSO stock solutions by pipetting. After drying, the plates were infested with L2 larvae (10 to 15 per well). The samples were assessed for mortality and growth inhibition in comparison to untreated samples 5 days after infestation.

[4] = test system: Spodoptera littoralis (Egyptian Cotton Leaf Worm); assay: Spodoptera littoralis (Egyptian cotton leaf worm) cotton leaf disc test; details: foliar, 72 h, application rate of 200 ppm, L1 larvae, 3 days after infestation, in comparison to untreated samples, read-out: control (mortality, anti-feeding effect, or growth inhibition)
Method: Example B4: Spodoptera littoralis (Egyptian Cotton Leaf Worm)
Cotton leaf discs were placed onto agar in 24-well microtiter plates and sprayed with aqueous test solutions prepared from 10′000 ppm DMSO stock solutions. After drying the leaf discs were infested with five L1 larvae. The samples were assessed for mortality, anti-feeding effect, and growth inhibition in comparison to untreated samples 3 days after infestation. Control of Spodoptera littoralis by a test sample is given when at least one of the categories mortality, anti-feedant effect, and growth inhibition is higher than the untreated sample.

[5] = test system: Tetranychus urticae (Two-Spotted Spider Mite); assay: Tetranychus urticae (two-spotted spider mite) feeding/contact activity, bean leaf discs; details: foliar, 192 h, application rate of 200 ppm, 8 days after infestation, read-out: mortality on mixed population (mobile stages)
Method: Example B5: Tetranychus urticae (Two-Spotted Spider Mite):Feeding/Contact Activity
as §1, with “Bean” for “Sunflower”, “discs” for “discs were placed”, “were” for “and”, “mite” for “thrips”, “on mixed population (mobile stages) 8” for “6”

[6] = test system: Myzus persicae (Green Peach Aphid); assay: Myzus persicae (green peach aphid) sucrose solution feeding test; details: 120 h, test rate of 12 ppm, 5 days after infestation
Description: Example B2: Myzus persicae (Green Peach Aphid)
Test compounds prepared from 10′000 ppm DMSO stock solutions were applied by pipette into 24-well microtiter plates and mixed with sucrose solution. The plates were closed with a stretched Parafilm. A plastic stencil with 24 holes was placed onto the plate and infested pea seedlings were placed directly on the Parafilm. The infested plate was closed with a gel blotting paper and another plastic stencil and then turned upside down. The samples were assessed for mortality 5 days after infestation.

N#CC1(CNC(=O)c2ccc(C3=NOC(c4cc(Cl)cc(Cl)c4)(C(F)(F)F)C3)cn2)CC1 (racemic) [Compound D01, N-[(1-cyanocyclopropyl)methyl]-5-[5-(3,5-dichlorophenyl)-5-(trifluoromethyl)-4H-isoxazol-3-yl]pyridine-2-carboxamide]
≥ 80%: mortality at 200 ppm [1] | percent effect (mortality or growth inhibition) at 200 ppm [2] | percent effect (mortality or growth inhibition) at 200 ppm [3]

Cc1cc(C2=NO[C@@](c3cc(Cl)c(F)c(Cl)c3)(C(F)(F)F)C2)ccc1C(=O)NCC1(C(N)=S)CC1 [Compound B01, N-[(1-carbamothioylcyclopropyl)methyl]-4-[(5S)-5-(3,5-dichloro-4-fluoro-phenyl)-5-(trifluoromethyl)-4H-isoxazol-3-yl]-2-methyl-benzamide]
≥ 80%: percent control (mortality, anti-feedant effect or growth inhibition) at 200 ppm [4] | mortality at 200 ppm [1] | percent effect (mortality or growth inhibition) at 200 ppm [2] | percent effect (mortality or growth inhibition) at 200 ppm [3] | mortality at 200 ppm [5] | mortality at 12 ppm [6]

CCOC(=O)N(CC1(C#N)CC1)C(=O)c1ccc(C2=NO[C@@](c3cc(Cl)c(F)c(Cl)c3)(C(F)(F)F)C2)cc1C [Compound F01, ethyl N-[(1-cyanocyclopropyl)methyl]-N-[4-[(5S)-5-(3,5-dichloro-4-fluoro-phenyl)-5-(trifluoromethyl)-4H-isoxazol-3-yl]-2-methyl-benzoyl]carbamate]
≥ 80%: percent control (mortality, anti-feedant effect or growth inhibition) at 200 ppm [4] | mortality at 200 ppm [1] | percent effect (mortality or growth inhibition) at 200 ppm [2] | percent effect (mortality or growth inhibition) at 200 ppm [3] | mortality at 200 ppm [5]

Cc1cc(C2=NOC(c3cc(Cl)cc(Cl)c3)(C(F)(F)F)C2)ncc1C(=O)NCC1(C#N)CC1 (racemic) [Compound D02, N-[(1-cyanocyclopropyl)methyl]-6-[5-(3,5-dichlorophenyl)-5-(trifluoromethyl)-4H-isoxazol-3-yl]-4-methyl-pyridine-3-carboxamide]
≥ 80%: percent control (mortality, anti-feedant effect or growth inhibition) at 200 ppm [4] | mortality at 200 ppm [1] | percent effect (mortality or growth inhibition) at 200 ppm [2] | percent effect (mortality or growth inhibition) at 200 ppm [3] | mortality at 200 ppm [5] | mortality at 12 ppm [6]

Cc1cc(C2=NO[C@@](c3cc(Cl)c(F)c(Cl)c3)(C(F)(F)F)C2)ccc1C(=O)NC(C)C1(C#N)CC1 (stereo partly drawn) [Compound E01, N-[1-(1-cyanocyclopropyl)ethyl]-4-[(5S)-5-(3,5-dichloro-4-fluoro-phenyl)-5-(trifluoromethyl)-4H-isoxazol-3-yl]-2-methyl-benzamide]
≥ 80%: percent control (mortality, anti-feedant effect or growth inhibition) at 200 ppm [4] | mortality at 200 ppm [1] | percent effect (mortality or growth inhibition) at 200 ppm [3]

Cc1cc(C2=NO[C@@](c3cc(Cl)c(F)c(Cl)c3)(C(F)(F)F)C2)ccc1C(=O)NCC1(C#N)CC1 [Compound A01, N-[(1-cyanocyclopropyl)methyl]-4-[(5S)-5-(3,5-dichloro-4-fluoro-phenyl)-5-(trifluoromethyl)-4H-isoxazol-3-yl]-2-methyl-benzamide]
≥ 80%: percent control (mortality, anti-feedant effect or growth inhibition) at 200 ppm [4] | mortality at 200 ppm [1] | percent effect (mortality or growth inhibition) at 200 ppm [2] | percent effect (mortality or growth inhibition) at 200 ppm [3] | mortality at 200 ppm [5] | mortality at 12 ppm [6]

Cc1cc(C2=NO[C@@](c3cc(Cl)c(F)c(Cl)c3)(C(F)(F)F)C2)ccc1C(=O)NCC1(C(N)=O)CC1 [Compound C01, N-[(1-carbamoylcyclopropyl)methyl]-4-[(5S)-5-(3,5-dichloro-4-fluoro-phenyl)-5-(trifluoromethyl)-4H-isoxazol-3-yl]-2-methyl-benzamide]
≥ 80%: percent control (mortality, anti-feedant effect or growth inhibition) at 200 ppm [4] | mortality at 200 ppm [1] | percent effect (mortality or growth inhibition) at 200 ppm [2] | percent effect (mortality or growth inhibition) at 200 ppm [3] | mortality at 200 ppm [5] | mortality at 12 ppm [6]
